Measured values reported in PubChem BioAssay (NCI).
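Each compound was tested at five concentrations against cells in 96-well plates for 48 hours. The concentration for 50% growth inhibition is given as GI50. TGI marks complete inhibition of growth.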

Legend:
Assay in all cases: NCI tumour cell line growth inhibition, 48 h
RPMI-8226 leukemia = test system: RPMI-8226 leukemia
BT-549 breast = test system: BT-549 breast
ACHN renal = test system: ACHN renal
HOP-92 NSCLC = test system: HOP-92 NSCLC
OVCAR-3 ovarian = test system: OVCAR-3 ovarian
NCI/ADR-RES ovarian = test system: NCI/ADR-RES ovarian
CAKI-1 renal = test system: CAKI-1 renal
SK-MEL-28 melanoma = test system: SK-MEL-28 melanoma
A549 NSCLC = test system: A549 NSCLC
SR leukemia = test system: SR leukemia
SK-MEL-2 melanoma = test system: SK-MEL-2 melanoma
MCF7 breast = test system: MCF7 breast
OVCAR-5 ovarian = test system: OVCAR-5 ovarian
SK-OV-3 ovarian = test system: SK-OV-3 ovarian
DU-145 prostate = test system: DU-145 prostate
OVCAR-8 ovarian = test system: OVCAR-8 ovarian
NCI-H23 lung = test system: NCI-H23 lung
UACC-257 melanoma = test system: UACC-257 melanoma
HCT-116 colon = test system: HCT-116 colon
COLO 205 colon = test system: COLO 205 colon
SNB-19 CNS = test system: SNB-19 CNS
M14 melanoma = test system: M14 melanoma
T-47D breast = test system: T-47D breast
HT29 colon = test system: HT29 colon
UACC-62 melanoma = test system: UACC-62 melanoma
HCT-15 colon = test system: HCT-15 colon
K-562 leukemia = test system: K-562 leukemia
HS 578T breast = test system: HS 578T breast
SF-539 CNS = test system: SF-539 CNS
EKVX NSCLC = test system: EKVX NSCLC
UO-31 renal = test system: UO-31 renal
RXF 393 renal = test system: RXF 393 renal
HCC-2998 colon = test system: HCC-2998 colon
SNB-75 CNS = test system: SNB-75 CNS
SN12C renal = test system: SN12C renal
CCRF-CEM leukemia = test system: CCRF-CEM leukemia
MALME-3M melanoma = test system: MALME-3M melanoma
HOP-62 NSCLC = test system: HOP-62 NSCLC
LOX IMVI melanoma = test system: LOX IMVI melanoma
MDA-MB-435 = test system: MDA-MB-435
OVCAR-4 ovarian = test system: OVCAR-4 ovarian
SK-MEL-5 melanoma = test system: SK-MEL-5 melanoma
786-0 renal = test system: 786-0 renal
SF-295 CNS = test system: SF-295 CNS
SW-620 colon = test system: SW-620 colon
A498 renal = test system: A498 renal
SF-268 CNS = test system: SF-268 CNS
MDA-MB-231 breast = test system: MDA-MB-231 breast
U251 CNS = test system: U251 CNS
MOLT-4 leukemia = test system: MOLT-4 leukemia
NCI-H460 lung = test system: NCI-H460 lung
NCI-H522 lung = test system: NCI-H522 lung
PC-3 prostate = test system: PC-3 prostate
IGROV1 ovarian = test system: IGROV1 ovarian
KM12 colon = test system: KM12 colon

`N#C/C(=C\c1cn(-c2ccccc2)c2ccccc12)C(=O)O` gave a GI50 (RPMI-8226 leukemia) of 43 µM, a TGI (RPMI-8226 leukemia) greater than 100 µM and a GI50 (BT-549 breast) of 36.6 µM. The TGI (BT-549 breast) was greater than 100 µM, the GI50 (ACHN renal) was 44 µM and the TGI (ACHN renal) was greater than 100 µM. For the same compound, the GI50 (HOP-92 NSCLC) was 33.9 µM, the TGI (HOP-92 NSCLC) was greater than 100 µM and the GI50 (OVCAR-3 ovarian) was 18.8 µM. The TGI (OVCAR-3 ovarian) was 43.9 µM, the GI50 (NCI/ADR-RES ovarian) was 57.7 µM and the TGI (NCI/ADR-RES ovarian) was greater than 100 µM. The GI50 (CAKI-1 renal) was 63.1 µM, the TGI (CAKI-1 renal) was greater than 100 µM and the GI50 (SK-MEL-28 melanoma) was 33.9 µM. For the same compound, the TGI (SK-MEL-28 melanoma) was greater than 100 µM, the GI50 (A549 NSCLC) was 42.9 µM and the TGI (A549 NSCLC) was greater than 100 µM. The GI50 (SR leukemia) was 68.8 µM, the TGI (SR leukemia) was greater than 100 µM and the GI50 (SK-MEL-2 melanoma) was 28 µM. The TGI (SK-MEL-2 melanoma) was greater than 100 µM, the GI50 (MCF7 breast) was 27.4 µM and the TGI (MCF7 breast) was greater than 100 µM. The GI50 (OVCAR-5 ovarian) was 95.5 µM, the TGI (OVCAR-5 ovarian) was greater than 100 µM and the GI50 (SK-OV-3 ovarian) was 71.4 µM. For the same compound, the TGI (SK-OV-3 ovarian) was greater than 100 µM, the GI50 (DU-145 prostate) was 44.2 µM and the TGI (DU-145 prostate) was greater than 100 µM. The GI50 (OVCAR-8 ovarian) was 44.6 µM, the TGI (OVCAR-8 ovarian) was greater than 100 µM and the GI50 (NCI-H23 lung) was 35.7 µM. For the same compound, the TGI (NCI-H23 lung) was greater than 100 µM, the GI50 (UACC-257 melanoma) was greater than 100 µM and the TGI (UACC-257 melanoma) was greater than 100 µM. It also gave a GI50 (HCT-116 colon) of 34.7 µM, a TGI (HCT-116 colon) greater than 100 µM and a GI50 (COLO 205 colon) of 85.9 µM. The TGI (COLO 205 colon) was greater than 100 µM, the GI50 (SNB-19 CNS) was 54.3 µM and the TGI (SNB-19 CNS) was greater than 100 µM. The GI50 (M14 melanoma) was 61.2 µM, the TGI (M14 melanoma) was greater than 100 µM and the GI50 (T-47D breast) was 29.6 µM. It also gave a TGI (T-47D breast) greater than 100 µM, a GI50 (HT29 colon) of 53.1 µM and a TGI (HT29 colon) greater than 100 µM. For the same compound, the GI50 (UACC-62 melanoma) was 23.8 µM, the TGI (UACC-62 melanoma) was 85.6 µM and the GI50 (HCT-15 colon) was 30.7 µM. The TGI (HCT-15 colon) was greater than 100 µM, the GI50 (K-562 leukemia) was 71.7 µM and the TGI (K-562 leukemia) was greater than 100 µM. For the same compound, the GI50 (HS 578T breast) was 32.2 µM, the TGI (HS 578T breast) was greater than 100 µM and the GI50 (SF-539 CNS) was 39.2 µM. The TGI (SF-539 CNS) was greater than 100 µM, the GI50 (EKVX NSCLC) was 34.2 µM and the TGI (EKVX NSCLC) was greater than 100 µM. For the same compound, the GI50 (UO-31 renal) was 23.8 µM, the TGI (UO-31 renal) was greater than 100 µM and the GI50 (RXF 393 renal) was 28.7 µM. It also gave a TGI (RXF 393 renal) greater than 100 µM, a GI50 (HCC-2998 colon) of 49.5 µM and a TGI (HCC-2998 colon) greater than 100 µM. For the same compound, the GI50 (SNB-75 CNS) was 31.4 µM, the TGI (SNB-75 CNS) was greater than 100 µM and the GI50 (SN12C renal) was 51.1 µM. The TGI (SN12C renal) was greater than 100 µM, the GI50 (CCRF-CEM leukemia) was 99 µM and the TGI (CCRF-CEM leukemia) was greater than 100 µM. For the same compound, the GI50 (MALME-3M melanoma) was greater than 100 µM, the TGI (MALME-3M melanoma) was greater than 100 µM and the GI50 (HOP-62 NSCLC) was 39.2 µM. For the same compound, the TGI (HOP-62 NSCLC) was greater than 100 µM, the GI50 (LOX IMVI melanoma) was 3.71 µM and the TGI (LOX IMVI melanoma) was greater than 100 µM. The GI50 (MDA-MB-435) was 39.4 µM, the TGI (MDA-MB-435) was greater than 100 µM and the GI50 (OVCAR-4 ovarian) was 39.1 µM. It also gave a TGI (OVCAR-4 ovarian) greater than 100 µM, a GI50 (SK-MEL-5 melanoma) of 38.4 µM and a TGI (SK-MEL-5 melanoma) greater than 100 µM. The GI50 (786-0 renal) was 61.2 µM, the TGI (786-0 renal) was greater than 100 µM and the GI50 (SF-295 CNS) was 28.1 µM. The TGI (SF-295 CNS) was greater than 100 µM, the GI50 (SW-620 colon) was 48.3 µM and the TGI (SW-620 colon) was greater than 100 µM. For the same compound, the GI50 (A498 renal) was 13.4 µM, the TGI (A498 renal) was 35 µM and the GI50 (SF-268 CNS) was 43.4 µM. It also gave a TGI (SF-268 CNS) greater than 100 µM, a GI50 (MDA-MB-231 breast) of 44.2 µM and a TGI (MDA-MB-231 breast) greater than 100 µM. The GI50 (U251 CNS) was 35 µM, the TGI (U251 CNS) was greater than 100 µM and the GI50 (MOLT-4 leukemia) was 72.8 µM. The TGI (MOLT-4 leukemia) was greater than 100 µM, the GI50 (NCI-H460 lung) was 30 µM and the TGI (NCI-H460 lung) was greater than 100 µM. It also gave a GI50 (NCI-H522 lung) of 29 µM, a TGI (NCI-H522 lung) of 88.8 µM and a GI50 (PC-3 prostate) of 58.3 µM. For the same compound, the TGI (PC-3 prostate) was greater than 100 µM, the GI50 (IGROV1 ovarian) was 49.3 µM and the TGI (IGROV1 ovarian) was greater than 100 µM. It also gave a GI50 (KM12 colon) of 30.1 µM and a TGI (KM12 colon) greater than 100 µM.
